# In patent US20090312335A1 (priority 2005, published 2009):
# Test system: HIV replication
# Test: Inhibition of acute HIV infection with HeLa P4-2 cells, single cycle infectivity ("vertical") assay
# Format: cell-based
# Settings: Human immunodeficiency virus 1, HeLaP4-2
# From the text: The inhibitory activity of the compounds of the present invention may be measured by assays known in the art. […] Preferred compounds have IC50 values of ≦1 micromolar in this integrase assay. […] 1992, 66, 2232 for measuring the inhibition of acute HIV infection with HeLa P4-2 cells in a single cycle infectivity assay.
# An assay for measuring the inhibition of acute HIV infection with HeLa P4-2 cells in a single cycle infectivity assay (alternatively referred to as the “vertical” assay) was conducted in accordance with Joyce, J. G., et al., J. Biol. Chem., 2002, 277, 45811, Hazuda, D. J. et al., Science, 2000, 287, 646, and Kimpton, J. et al, J. Virol. 1992, 66, 2232.
row,SMILES,IC50
1,"CN1CCn2cc(-c3nnc(Cc4ccc(F)cc4)s3)c(O)c2C1=O [Example 1, 7-[5-(4-Fluorobenzyl)-1,3,4-thiadiazol-2-yl]-8-hydroxy-2-methyl-3,4-dihydropyrrolo[1,2-a]pyrazin-1(2H)-one]",< 35 µM
2,"CN1CCn2cc(-c3nnc(Cc4ccc(F)cc4)o3)c(O)c2C1=O [Example 2, 7-[5-(4-Fluorobenzyl)-1,3,4-oxadiazol-2-yl]-8-hydroxy-2-methyl-3,4-dihydropyrrolo[1,2-a]pyrazin-1(2H)-one]",< 35 µM
3,CN1CCn2cc(-c3nnc(Cc4ccc(F)cc4)[nH]3)c(O)c2C1=O [Example 3],< 35 µM
4,"CN1C[C@H](c2ccccc2)n2nc(-c3nnc(Cc4ccc(F)cc4)s3)c(O)c2C1=O [Example 4, (7S)-2-[5-(4-Fluorobenzyl)-1,3,4-thiadiazol-2-yl]-3-hydroxy-5-methyl-7-phenyl-6,7-dihydropyrazolo[1,5a]pyrazin-4(5H)-one]",< 35 µM
5,"CN1C[C@H](c2ccccc2)n2nc(-c3nnc(Cc4ccc(F)cc4)o3)c(O)c2C1=O [Example 5, (7S)-2-[5-(4-Fluorobenzyl)-1,3,4-oxadiazol-2-yl]-3-hydroxy-5-methyl-7-phenyl-6,7-dihydropyrazolo[1,5a]pyrazin-4(5H)-one]",< 35 µM
